Measurements published in patent US6737383B1, “Herbicidal oxadiazolidines” (priority 1999, dated 2004).

Tests used:
[1] = system: bedstraw; experiment: Test B pre/postemergence bedstraw; assay type: in vivo, Galium aparine
How it was run: (§1)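 Herbicidal effect was estimated by eye on a ten-point control scale after plants spent twelve to sixteen days in a greenhouse following soil or foliar treatment. Foliar sprays targeted plants at one to four leaves; all doses were formulated in a non-phytotoxic solvent with surfactant.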

[2] = system: soybean; experiment: Test B pre/postemergence soybean; assay type: in vivo, Glycine max
How it was run: as §1

[3] = system: wild oat; experiment: Test B pre/postemergence wild oat; assay type: in vivo, Avena fatua
How it was run: as §1

[4] = system: bamyardgrass; experiment: Test B flood test barnyardgrass; assay type: in vivo, Echinochloa crus-galli; conditions: for Plant response rating, Barnyardgrass (0 to 10 scale, 0 is no effect, 10 is complete control) / Barnyardgrass plant response rating (0 to 10 scale, 0 is no effect, 10 is complete control): visual evaluation after twelve to sixteen days; for Barnyardgrass plant response rating (0 to 10 scale, 0 is no effect, 10 is complete control): under heading Pre-emergence
How it was run: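 Plants were grown to the 2-leaf stage before treatment with test chemical, then held in a greenhouse for twelve to sixteen days. Injury was visually rated against untreated controls on a 0–10 scale, where 0 is no effect and 10 is complete control.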

[5] = system: winter wheat; experiment: Test E winter wheat; assay type: in vivo, Triticum aestivum; conditions: Postemergence
How it was run: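 For postemergence, plants at the 1- to 4-leaf stage, in a 60:40 mix of sandy loam and potting mix, treated with compound formulated in a surfactant-containing non-phytotoxic solvent. Visual assessment versus untreated controls followed roughly 21–28 days in the greenhouse.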

[6] = system: blackgrass; experiment: Test E blackgrass; assay type: in vivo, Alopecurus myosuroides; conditions: Preemergence
[7] = system: green foxtail; experiment: Test E green foxtail; assay type: in vivo, Setaria viridis; conditions: Preemergence
[8] = system: Italian ryegrass; experiment: Test E Italian ryegrass; assay type: in vivo, Lolium multiflorum; conditions: Preemergence
[9] = system: winter wheat; experiment: Test E winter wheat; assay type: in vivo, Triticum aestivum; conditions: Preemergence
[10] = system: wild oat; experiment: Test E wild oat; assay type: in vivo, Avena fatua; conditions: Preemergence
[11] = system: winter barley; experiment: Test E winter barley; assay type: in vivo, Hordeum vulgare; conditions: Preemergence
[12] = Postemergence, Rate 62 g/ha, scale 0 to 10, 0 is no effect, 10 is complete control
[13] = Preemergence, Rate 62 g/ha, scale 0 to 10 (0 no effect, 10 complete control)
[14] = Preemergence, Rate 125 g/ha, scale 0 to 10 (0 no effect, 10 complete control)
[15] = Preemergence, Rate 250 g/ha, scale of 0 to 10 where 0 is no effect and 10 is complete control
[16] = Preemergence, Rate 500 g/ha, scale 0 to 10 (0 no effect, 10 complete control)
[17] = Postemergence, Rate 125 g/ha, scale of 0 to 10 where 0 is no effect and 10 is complete control
[18] = Rate 62 g/ha, Postemergence, scale of 0 to 10 where 0 is no effect and 10 is complete control
[19] = Rate 250 g/ha, Postemergence, scale 0 to 10, 0 is no effect, 10 is complete control
[20] = Rate 500 g/ha, Postemergence, scale 0 to 10, 0 no effect, 10 complete control
[21] = Rate 62 g/ha, 0 to 100 scale, 0 no effect, 100 complete control
[22] = Rate 125 g/ha, 0 to 100 scale (0 no effect, 100 complete control)
[23] = Postemergence, Rate 125 g/ha, scale 0 to 10, 0 is no effect, 10 is complete control
[24] = Postemergence, Rate 250 g/ha, scale 0 to 10, 0 is no effect, 10 is complete control
[25] = Preemergence, Rate 500 g/ha, scale of 0 to 10 where 0 is no effect and 10 is complete control
[26] = Rate 62 g/ha, flood test species, Pre-emergence
[27] = Rate 125 g/ha, flood test species
[28] = Rate 500 g/ha, 0 to 100 scale (0 no effect, 100 complete control)
[29] = Preemergence, Rate 125 g/ha, scale of 0 to 10 where 0 is no effect and 10 is complete control
[30] = Postemergence, Rate 500 g/ha, scale of 0 to 10 where 0 is no effect and 10 is complete control

## CC(C)N(C(=O)n1oc(=O)n(C(C)C)c1=O)c1ccccc1 [Compound 113]
[1]; [12]
  Bedstraw plant response rating: 1
[1]; Postemergence, Rate 250 g/ha, scale 0 to 10, 0 no effect, 10 complete control
  Bedstraw plant response rating: 7
[1]; [13]
  Bedstraw plant response rating: 4
[1]; [14]
  Plant response rating, Bedstraw: 6
[1]; [15]
  Plant response rating, Bedstraw: 7
[1]; [16]
  Bedstraw plant response rating: 8
[1]; Rate 125 g/ha, Postemergence, scale 0 to 10, 0 no effect, 10 complete control
  Bedstraw plant response rating: 4
[2]; [17]
  Soybean plant response rating: 6
[2]; [13]
  Soybean plant response rating: 3
[2]; [14]
  Plant response rating, Soybean: 8
[2]; [15]
  Plant response rating, Soybean: 9
[2]; [16]
  Soybean plant response rating: 9
[2]; [18]
  Soybean plant response rating: 6
[2]; [19]
  Plant response rating, Soybean: 7
[2]; [20]
  Soybean plant response rating: 7
[3]; [17]
  Wild oats plant response rating: 2
[3]; [13]
  Wild oats plant response rating: 6
[3]; Preemergence, Rate 125 g/ha, 0 is no effect, 10 is complete control
  Wild oats plant response rating (0 to 10 scale): 10
[3]; [15]
  Plant response rating, Wild oats: 10
[3]; [16]
  Wild oats plant response rating: 10
[3]; [18]
  Wild oats plant response rating: 1
[3]; [19]
  Plant response rating, Wild oats: 6
[3]; [20]
  Wild oats plant response rating: 6
[4]; [12]
  Barnyardgrass plant response rating: 0
[4]; Rate 125 g/ha, Postemergence section (flood test species), scale 0 to 10, 0 no effect, 10 complete control
  Barnyardgrass plant response rating: 0
[4]; Rate 250 g/ha, headed Pre-emergence (flood test species), scale 0 to 10 (0 no effect, 10 complete control)
  Barnyardgrass plant response rating: 0
[4]; Rate 500 g/ha, headed Pre-emergence (flood test species), scale 0 to 10 (0 no effect, 10 complete control)
  Plant response rating, Barnyardgrass: 0
[4]; Rate 500 g/ha, listed under Postemergence (flood test species), scale 0 to 10, 0 no effect, 10 complete control
  Barnyardgrass plant response rating: 0
[4]; Rate 1000 g/ha, Pre-emergence (as headed), scale 0 to 10
  Barnyardgrass plant response rating: 0
[4]; Rate 2000 g/ha, Pre-emergence (as headed), scale 0 to 10, 0 no effect, 10 complete control
  Barnyardgrass plant response rating: 9
[4]; flood test, listed under Postemergence, Rate 250 g/ha, scale 0 to 10, 0 no effect, 10 complete control
  Barnyardgrass plant response rating: 0
[5]; Rate 62 g/ha, 0 to 100 scale
  Plant response rating, Wheat (winter): 15
[5]; Rate 125 g/ha, 0 to 100 scale
  Plant response rating, Wheat (winter): 30
[5]; Rate 250 g/ha, 0 to 100 scale (0 no effect, 100 complete control)
  Plant response rating, Wheat (winter): 70
[6]; [21]
  Plant response rating, Blackgrass: 60
[6]; [22]
  Plant response rating, Blackgrass: 30
[6]; Rate 250 g/ha, 0 to 100 scale
  Plant response rating, Blackgrass: 85
[7]; [21]
  Plant response rating, Green foxtail: 55
[7]; [22]
  Plant response rating, Green foxtail: 70
[7]; Rate 250 g/ha, 0 to 100 scale
  Plant response rating, Green foxtail: 85
[8]; [21]
  Plant response rating, I. Ryegrass: 50
[8]; [22]
  Plant response rating, I. Ryegrass: 50
[8]; Rate 250 g/ha, 0 to 100 scale
  Plant response rating, I. Ryegrass: 100
[9]; [21]
  Plant response rating, Wheat (winter): 40
[9]; [22]
  Plant response rating, Wheat (winter): 50
[9]; Rate 250 g/ha, 0 to 100 scale
  Plant response rating, Wheat (winter): 60
[10]; [21]
  Plant response rating, Wild oat: 20
[10]; [22]
  Plant response rating, Wild oat: 30
[11]; [21]
  Plant response rating, Barley (winter): 10
[11]; [22]
  Plant response rating, Barley (winter): 10
[11]; Rate 250 g/ha, 0 to 100 scale
  Plant response rating, Barley (winter): 85

## CC1CC1n1c(=O)on(C(=O)N(c2ccc(F)cc2)C(C)C)c1=O (stereo not drawn) [Compound 371]
[2]; [23]
  Plant response rating, Soybean: 1
[2]; [24]
  Plant response rating, Soybean: 1
[2]; [13]
  Plant response rating, Soybean: 0
[2]; Preemergence, Rate 125 g/ha
  Soybean plant response rating (0 to 10 scale): 0
[2]; [15]
  Soybean plant response rating: 0
[2]; [25]
  Soybean plant response rating: 2
[2]; [18]
  Soybean plant response rating: 1
[2]; [20]
  Plant response rating, Soybean: 4
[3]; [23]
  Plant response rating, Wild oats: 0
[3]; [24]
  Plant response rating, Wild oats: 3
[3]; [13]
  Plant response rating, Wild oats: 0
[3]; Preemergence, Rate 125 g/ha
  Wild oats plant response rating (0 to 10 scale): 3
[3]; [15]
  Wild oats plant response rating: 3
[3]; [25]
  Wild oats plant response rating: 6
[3]; [18]
  Wild oats plant response rating: 0
[3]; [20]
  Plant response rating, Wild oats: 4
[4]; [26]
  Plant response rating, Barnyardgrass (0 to 10 scale, 0 is no effect, 10 is complete control): 0
[4]; [27]
  Barnyardgrass plant response rating (0 to 10 scale, 0 is no effect, 10 is complete control): 0
[4]; Rate 250 g/ha, Pre-emergence, flood-test species, scale 0 to 10, 0 is no effect, 10 is complete control
  Barnyardgrass plant response rating: 0
[4]; Rate 500 g/ha, Pre-emergence, flood test species, scale 0 to 10 (0 no effect, 10 complete control)
  Barnyardgrass plant response rating: 7
[5]; Rate 125 g/ha, 0 to 100 scale, 0 is no effect, 100 is complete control
  Plant response rating, Wheat (winter): 70
[5]; Rate 250 g/ha, 0 to 100 scale, 0 is no effect, 100 is complete control
  Plant response rating, Wheat (winter): 65
[5]; Rate 500 g/ha, 0 to 100 scale, 0 is no effect, 100 is complete control
  Plant response rating, Wheat (winter): 80
[6]; [22]
  Plant response rating, Blackgrass: 85
[6]; Rate 250 g/ha, 0 to 100 scale
  Plant response rating, Blackgrass: 100
[6]; [28]
  Plant response rating, Blackgrass: 100
[7]; [22]
  Plant response rating, Green foxtail: 35
[7]; Rate 250 g/ha, 0 to 100 scale
  Plant response rating, Green foxtail: 60
[7]; [28]
  Plant response rating, Green foxtail: 85
[8]; [22]
  Plant response rating, I. Ryegrass: 60
[8]; Rate 250 g/ha, 0 to 100 scale
  Plant response rating, I. Ryegrass: 70
[8]; [28]
  Plant response rating, I. Ryegrass: 90
[9]; [22]
  Plant response rating, Wheat (winter): 60
[9]; Rate 250 g/ha, 0 to 100 scale
  Plant response rating, Wheat (winter): 60
[9]; [28]
  Plant response rating, Wheat (winter): 65
[10]; [22]
  Plant response rating, Wild oat: 70
[10]; Rate 250 g/ha, 0 to 100 scale
  Plant response rating, Wild oat: 85
[10]; [28]
  Plant response rating, Wild oat: 90
[11]; [22]
  Plant response rating, Barley (winter): 40
[11]; Rate 250 g/ha, 0 to 100 scale, 0 no effect, 100 complete control
  Plant response rating, Barley (winter): 60
[11]; [28]
  Plant response rating, Barley (winter): 70

## C#CC(C)n1c(=O)on(C(=O)N(c2ccccc2)C(C)C)c1=O (stereo not drawn) [Compound 609]
[1]; [12]
  Plant response rating, Bedstraw: 0
[1]; [17]
  Plant response rating, Bedstraw: 0
[1]; [13]
  Bedstraw plant response rating: 4
[1]; [29]
  Bedstraw plant response rating: 8
[1]; Preemergence, Rate 250 g/ha
  Bedstraw plant response rating (0 to 10 scale): 8
[2]; [12]
  Plant response rating, Soybean: 5
[2]; [17]
  Plant response rating, Soybean: 6
[2]; [30]
  Plant response rating, Soybean: 7
[2]; [13]
  Soybean plant response rating: 4
[2]; [29]
  Soybean plant response rating: 6
[2]; [25]
  Plant response rating, Soybean: 7
[3]; [12]
  Plant response rating, Wild oats: 0
[3]; [17]
  Plant response rating, Wild oats: 0
[3]; Postemergence, Rate 250 g/ha, scale of 0 to 10, 0 is no effect, 10 is complete control
  Wild oats plant response rating: 0
[3]; [30]
  Plant response rating, Wild oats: 4
[3]; [13]
  Wild oats plant response rating: 3
[3]; [29]
  Wild oats plant response rating: 7
[3]; [25]
  Plant response rating, Wild oats: 10
[4]; [26]
  Plant response rating, Barnyardgrass (0 to 10 scale, 0 is no effect, 10 is complete control): 0
[4]; [27]
  Barnyardgrass plant response rating (0 to 10 scale, 0 is no effect, 10 is complete control): 0
[4]; Rate 250 g/ha, Pre-emergence (flood test species), scale 0 to 10, 0 is no effect, 10 is complete control
  Barnyardgrass plant response rating: 0
[4]; Rate 500 g/ha, Pre-emergence section of Table B, 0 to 10 scale (0 no effect, 10 complete control)
  Barnyardgrass plant response rating: 0
